# Source: US9315482B2, “Derivatives useful as antiviral agents” (priority 2010, dated 2016)
# Where two headings read alike, the source gives them in different places.
# Key:
# [1] = system: measles virus (MV); experiment: Inhibition of measles virus replication in HEK-293T cells, recombinant measles virus expressing luciferase (MV-Luc); conditions: for in vitro replication of the measles virus (MV) (luciferase activity) / in vitro replication of measles virus (MV) (luciferase activity): MV-Luc; for in vitro replication of measles virus (MV) (luciferase activity): Example 37, HEK-293T cells, FIG. 11B; for in vitro replication of measles virus (luciferase activity): Example 32, HEK-293T cells, 1 M.O.I., 20, 10, 5 μg/ml, FIG. 6; for in vitro replication of measles virus (luciferase activity) / in vitro replication of measles virus expressing luciferase: 48 h; for in vitro replication of measles virus expressing luciferase: Example 33, HEK-293T cells, FIG. 7
# [2] = system: HEK-293T cells
# [3] = Metabolic stability over human liver microsomes; format: in vitro ADME; conditions: human liver microsomes 0.5 mg/mL, 1 mM NADPH, 2.5 μM compound, 37 °C
# Protocol: The metabolic stability of compounds DD771 and GAC50 has been measured over human liver microsomes
# Incubation (n=2) • A solution comprising each compound is prepared at a concentration of 1 mM in DMSO. • Said solution is diluted 1/100 in a phosphate buffer containing 0.5 mg/mL of human liver microsomes, 1 mM NADPH and 5 mM MgCl2.
# The final concentration of each compound in the assay is 2.5 μM (0.25% de DMSO). • After homogenization (30 s), 50 μL are taken and mixed to 50 μL acetonitrile in order to precipitate the proteins present in the medium and to solubilise the compound. • The mixture is vortexed during 3 min then sonicated during 3 min and finally centrifuged during 10 min at 15 000 g and 4° C. • The same treatment is done at times 15, 30, 45 and 60 minutes. • The supernatants are injected and analysed by LC-MS/MS following standard method. • In parallel, incubation is carried out and in duplicate by substituting the co-factor NADPH by an equivalent buffer volume. • A sample is taken at t=60 min only.
# Analyse LC-MS/MS: • All the samples are analysed by UHPLC coupled to a triple quadruple Shimadzu LC-MS 3080.
# Calculations: • Half life: […] • Intrinsec clearance: CLint=V×ln2/t1/2
# k: disappearance rate constant (min^−1)
# V=incubation volume/protein mass (μL/mg)
# [4] = system: herpes simplex virus 2 (HSV2); experiment: Antiviral activity against herpes simplex virus 2; format: cell-based; conditions: DNA virus
# [5] = system: human parainfluenza virus type 3 (hPIV3); experiment: Inhibition of human parainfluenza virus type 3 in HEK-293T cells, glycoprotein immunostaining; format: cell-based; conditions: 1 M.O.I., 2.5, 5, 10, 20 μg/ml, 48 h, FIG. 3
# Excerpt: Culture medium was removed, and cells were fixed in 90% acetone. Infected cells were stained with a FITC-conjugated monoclonal antibody (17-038; Argene) to detect the virus glycoprotein (green fluorescence). Cells were counterstained with Evans blue (red fluorescence).
# [6] = system: ISRE-luciferase construct; experiment: Stimulation of the ISRE-luciferase construct; format: cell-based; conditions: selection screen
# [7] = system: coxsackievirus B3; experiment: Inhibition of coxsackievirus B3 in HEK-293T cells, virus titers by TCID50; format: cell-based; conditions: 0.1 M.O.I., 10 μg/ml, 24 h, FIG. 5
# Protocol: Finally, supernatants were harvested, and virus titers were determined by TCID50 (Tissue Culture Infecting Dose) on vera cells.
# [8] = system: dengue virus (serotype 4); experiment: Inhibition of dengue virus replication in HEK-293T cells, glycoprotein immunostaining; format: cell-based; conditions: 0.1 M.O.I., 5, 10, 20 μg/ml, 72 h, FIG. 2
# Excerpt: Culture medium was removed, and cells were fixed in 90% acetone. Finally, infected cells were stained for dengue virus glycoprotein expression using a 1/1000 dilution of a specific antibody (clone 1H10-6; Millipore) in PBS+5% goat serum.
# [9] = system: herpes simplex virus 1 (HSV1); experiment: Antiviral activity against herpes simplex virus 1; format: cell-based; conditions: DNA virus
# [10] = system: RNA viruses; experiment: Antiviral activity against nine RNA viruses (summary); conditions: 2.5 to 20 μg/ml
# [11] = system: RSV B1; experiment: Inhibition of human respiratory syncytial virus in MRC5 cells, flow cytometry (RSV B1); format: cell-based; conditions: M.O.I of 1, 20, 10 μg/ml, 48 h, FIG. 4
# Protocol: (§1) After 24 h, cell culture medium was removed, and cells were incubated for at 37° C. in the presence RSV A2 or RSV B1 at a M.O.I of 1. […] After 48 h, cells were harvested, treated with Cytofix/Cytoperm fixation/permeabilization solution (Becton-Dickinson), and stained with anti-H antibodies (ab20391, Abeam) to detect the virus glycoprotein. The percentage of infected cells was determined by flow cytometry analysis. Interferon beta (IFN-β) was used as a reference.
# [12] = system: West-Nile virus (WNV); experiment: Inhibition of West-Nile virus (WNV) in HEK-293T cells, glycoprotein immunostaining; conditions: M.O.I.=1, compounds at 5 μg/ml, FIG. 1
# [13] = system: human coronavirus 229E (229E); experiment: Inhibition of human coronavirus 229E in MRC5 cells, spike glycoprotein immunostaining; conditions: M.O.I.=0.01, compounds at 20 μg/ml, FIG. 1
# [14] = system: HEK-293T cells; experiment: Cellular toxicity in HEK-293T cells (intracellular ATP, CellTiter-Glo); conditions: for cellular toxicity (intracellular ATP, CellTiter-Glo): HEK-293T cells, FIG. 12C
# [15] = system: RSV A2; experiment: Inhibition of human respiratory syncytial virus in MRC5 cells, flow cytometry (RSV A2); format: cell-based; conditions: M.O.I of 1, 20, 10 μg/ml, 48 h, FIG. 4
# Protocol: as §1
# [16] = Example 36, HEK-293T cells, 24 hours, FIG. 10
# [17] = Example 34, HEK-293T cells, 48 hours, FIG. 8
molecule,measurement,setting,value
ON=C1CCCc2occ(-c3cccc(Cl)c3)c21,melting point,,157 to 158 °C
CC1(C)CC(=O)c2c(-c3cccc(Cl)c3)coc2C1,melting point,,104 to 105 °C
COc1cc(-c2coc3c2C(=O)CCC3)cc(OC)c1OC,melting point,,140 to 141 °C
O=C1CCCc2occ(-c3cc(Cl)cc(Cl)c3)c21,melting point,,105 to 106 °C
"3-(1H-5-methylindol-3-yl)-2-nitro-2,3-dihydrofuro[3,2-c]chromen-4-one [DD778]",in vitro replication of the measles virus (MV) (luciferase activity),[1]; [16],blocked
O=C1CCCC2=C1C(c1ccccc1Cl)C([N+](=O)[O-])O2 (centres unmarked),melting point,,162 to 163 °C
CC(=O)C1=C(C)OC([N+](=O)[O-])C1c1cccc(Cl)c1 (centres unmarked),melting point,,84 to 85 °C
O=C1CCCc2occ(-c3cccc([N+](=O)[O-])c3)c21,melting point,,94 to 95 °C
"3-(1H-5-fluoroindol-3-yl)-2-nitro-2,3-dihydrofuro[3,2-c]chromen-4-one [DD776]",in vitro replication of the measles virus (MV) (luciferase activity),[1]; [16],blocked
O=C1CCCc2occ(-c3ccc(Cl)c(Cl)c3)c21,melting point,,122 to 123 °C
"3-(1H-5-chloroindol-3-yl)-2-nitro-2,3-dihydrofuro[3,2-c]chromen-4-one [DD771]","cellular toxicity (intracellular ATP, CellTiter-Glo)",[2],acceptable cytotoxicity
same,Half life,[3],No significative metabolism
same,Intrinsic Clearance,[3],No significative metabolism
same,in vitro replication of the measles virus (MV) (luciferase activity),[1]; [16],blocked
same,in vitro replication of measles virus (MV) (luciferase activity),[1]; 24 hours,blocked
"O=C1CCCc2occ(-c3cccc(Cl)c3)c21 [Example 129-G03, 3-(3-chlorophenyl)-6,7-dihydro-5H-benzofuran-4-one]",effects against HSV2,[4],no effects
same,in vitro replication of human parainfluenza virus type 3,[5],blocked
same,melting point,,87 to 88 °C
same,ability to stimulate the ISRE-luciferase construct,[6],ability to stimulate the ISRE-luciferase construct
same,in vitro production of coxsackievirus B3 (virus titers by TCID50),[7],blocked
same,in vitro replication of dengue virus (serotype 4),[8],blocked
same,effects against HSV1,[9],no effects
same,cytopathic effects at concentrations blocking RNA virus replication,[10],no detectable cytopathic effects
same,in vitro replication of hRSV serotype B1 (percentage of infected cells),[11],blocked
same,in vitro replication of measles virus (luciferase activity),[1],blocked
same,in vitro replication of measles virus expressing luciferase,[1],blocked
same,in vitro replication of the measles virus (MV) (luciferase activity),[1]; [17],blocked
same,in vitro replication of the measles virus (MV) (luciferase activity),[1]; [16],blocked
same,in vitro replication of measles virus (MV) (luciferase activity),[1]; 24 hours,blocked
same,in vitro replication of WNV (glycoprotein expression by immunostaining),[12],blocked
same,in vitro replication of 229E (spike glycoprotein expression by immunostaining),[13],blocked
same,"cellular toxicity (intracellular ATP, CellTiter-Glo)",[14],acceptable cytotoxicity
same,cytotoxic effects on HEK-293T cells,[14]; selection screen,absence of cytotoxic effects
same,in vitro replication of hRSV serotype A2 (percentage of infected cells),[15],blocked
COc1ccc(Cl)cc1-c1coc2c1C(=O)CCC2,melting point,,136 to 137 °C
"O=C1CCCc2occ(-c3cccc(I)c3)c21 [GAC25, 3-(3-iodophenyl)-6,7-dihydro-5H-benzofuran-4-one]",melting point,,135 to 136 °C
same,in vitro replication of measles virus expressing luciferase,[1],blocked
same,in vitro replication of the measles virus (MV) (luciferase activity),[1]; [17],blocked
O=C1CCCc2occ(-c3ccccc3Cl)c21,melting point,,147 to 148 °C
COc1ccc(Cl)cc1C1C2=C(CCCC2=O)OC1[N+](=O)[O-] (centres unmarked),melting point,,171 to 172 °C
O=C1CCCc2occ(-c3ccc(Cl)cc3)c21,melting point,,104 to 105 °C
O=C1CCCc2occ(-c3cccc(Br)c3)c21,melting point,,106 to 107 °C
O=C1CCCc2occ(-c3cccc(F)c3)c21,melting point,,65 to 66 °C
"O=c1oc2ccccc2c2c1C(c1c[nH]c3ccccc13)C([N+](=O)[O-])O2 (centres unmarked) [Example 123-G05, 3-(1H-Indol-3-yl)-2-nitro-2,3-dihydrofuro[3,2-c]chromen-4-one]",effects against HSV2,[4],no effects
same,in vitro replication of human parainfluenza virus type 3,[5],blocked
same,melting point,,248 to 250 °C (dec.)
same,ability to stimulate the ISRE-luciferase construct,[6],ability to stimulate the ISRE-luciferase construct
same,in vitro production of coxsackievirus B3 (virus titers by TCID50),[7],blocked
same,in vitro replication of dengue virus (serotype 4),[8],blocked
same,cytotoxic effects on HEK-293T cells,[2],absence of cytotoxic effects
same,effects against HSV1,[9],no effects
same,cytopathic effects at concentrations blocking RNA virus replication,[10],no detectable cytopathic effects
same,in vitro replication of hRSV serotype B1 (percentage of infected cells),[11],blocked
same,in vitro replication of measles virus (luciferase activity),[1],blocked
same,in vitro replication of WNV (glycoprotein expression by immunostaining),[12],blocked
same,in vitro replication of 229E (spike glycoprotein expression by immunostaining),[13],blocked
same,"cellular toxicity (intracellular ATP, CellTiter-Glo)",[14],acceptable cytotoxicity
same,in vitro replication of hRSV serotype A2 (percentage of infected cells),[15],blocked
"C=Cc1cccc(-c2coc3c2C(=O)CCC3)c1 [GAC50, 3-(3-ethenylphenyl)-6,7-dihydro-5H-benzofuran-4-one]",melting point,,88 to 89 °C
same,half-life at 2.5 μM,[3],11.3 min
same,microsomal CLint at 2.5 μM,[3]; read-out: Intrinsic Clearance,49.1 µL/min/mg
same,in vitro replication of the measles virus (MV) (luciferase activity),[1]; [17],blocked
same,in vitro replication of measles virus (MV) (luciferase activity),[1]; 24 hours,blocked
COc1cccc(-c2coc3c2C(=O)CCC3)c1,melting point,,79 to 80 °C
CC1CC(=O)c2c(-c3cccc(Cl)c3)coc2C1 (centres unmarked),melting point,,121 to 122 °C
